Data: US8557331B2, “Antifouling method and composition using chromen-4-one derivatives” (The Hong Kong University of Science and Technology, priority 2008, dated 2013)
Converted amounts (≈) assume the structure as drawn.

Tests used:
[1] = test system: larval settlement of the barnacle Balanus amphitrite; assay: Bioassay for antifouling activity against larval settlement (cyprids, 24-well plate, 24 h)
Protocol: (§1) The larvae were reared in freshly filtered natural seawater (FSW, 0.45 μm, 32S salinity) and fed with Chaetoceros gracilis Schutt at 24° C. in the Coastal Marine Laboratory, the Hong Kong University of Science and Technology (HKUST). Larvae that were competent to settle (called cyprids) were stored for 2 days at 8° C. prior to being used in the bioassays. Ten μl of each test sample dissolved in dimethyl sulfoxide (DMSO) were transferred into a well in 24-well polystyrene plate after the addition of 1 ml of FSW. The control wells contained 1 ml of FSW and 10 μl of DMSO. About 15 cyprids were added in each well with triplicate samples being tested.
as §1, with “freshly filtered nature seawater (FSW,” for “freshly filtered natural seawater (FSW,”, “Technology (HKUST). Cyprids (competent larvae) were stored” for “Technology (HKUST). Larvae that were competent to settle (called cyprids) were stored”, “8° C. (aged cyprids) prior to” for “8° C. prior to”

[2] = Hydrolysis experiment of genistein (ASTM E895-89, HPLC); assay type: physicochemical; conditions: 50° C. in dark, a week
Protocol: The experiments were carried out according to the method described in ASTM (1993). Buffer solutions consisting of 20 mM of sodium acetate were prepared with adjusted pH level at 5, 7, and 9. FSW was the same as those used in bioassays. Artificial seawater (ASW) was prepared as van't Hoff formula (460 mM NaCl, 10.1 mM KCl, 9.2 mM CaCl2, 35.9 mM MgCl2, 17.5 mM MgSO4, 10 mM Tris-HCl, and pH 8.2). Test solution (900 ml) containing 4 μg genistein was divided into nine test glass tubes (100 ml each), and then the tubes were tightly capped. Immediately after preparation of the test solutions, three tubes were loaded onto a Sep-Pak tC18 ENV column (Waters, USA), preconditioned for use by eluting it with methanol and water under reduced pressure. The column after loading the test sample was eluted with water to remove any salts in the test samples, and was then eluted with 2.5 ml of DMSO. Thus, the eluate was 40 times more concentrated than the sample in the original test solution; this concentrated solution was subjected to HPLC analysis. The HPLC system (600, Waters, USA) was equipped with a photodiode array detector (996, Waters, USA) installed in tandem after outlet of the column (Phenomenex Luna 5λ C18 100A, 250×4.60 mm, 5 micron). The solvents used were (A) 5% acetonitrile and (B) 95% acetonitrile at the isocratic flow rates of (A) 0.53 ml min^−1 and (B) 0.47 ml min^−1 at 40° C., respectively. A volume of ten μl of elute was injected into the column using an autosampler (717plus, Waters, USA). The UV absorption at 1=260 nm was used for quantification. The analytical data were shown as the average value of triplicate analyses. The remaining six tubes were kept at 50° C. in the dark in an incubator for a period of four or seven days according to ASTM Procedure E895-89 (ASTM, 1993). After the incubations, each of three test samples was subjected to HPLC analysis, following the same concentration process as described above to determine the remaining concentration of genistein.

[3] = Bioassay for antifouling activity against larval settlement (cyprids, 24-well plate, 24 h); conditions: Balanus amphitrite (barnacle, cyprid larvae), in vivo
Protocol: as §1
as §1, with “freshly filtered nature seawater (FSW,” for “freshly filtered natural seawater (FSW,”, “Technology (HKUST). Cyprids (competent larvae) were stored” for “Technology (HKUST). Larvae that were competent to settle (called cyprids) were stored”, “8° C. (aged cyprids) prior to” for “8° C. prior to”

[4] = test system: barnacle Balanus amphitrite; assay: Field experiment: resin-based paint on PVC panels submerged at pier; assay type: in vivo
Protocol: Test compounds (genistein, Cu2O, or their mixture) were mixed with resin-based paint (Permoglaze, Akzo Nobel Decorative Coatings, Lancashire, UK) with addition of 15% of (w/w) xylene, and then sprayed on the surface of PVC panels (size: 10 cm×10 cm×0.5 cm). Genistein was incorporated into paint by 10 and 20% of the dry weight as the low and high concentrations, respectively. In the experiments of combination effects, both Cu2O and genistein at 10% of dry weight were added. The controls used was a resin based paint with addition of 15% (w/w) of xylene only. Each of the tested paints was mixed for more than 8 h before being spread onto panels. The thickness of each paint film was between 100 and 150 μm. The painted panels were air-dried completely prior to being tied to PVC frames and deployed vertically at a depth of 1-1.5 m at the pier of HKUST from March to June in 2007. The numbers of adult barnacle B. amphitrite on the surface were counted and the density on each panel was calculated after their submergences. Four replicates were tested for each sample.

[5] = Amphibalanus amphitrite, Table 2, larval settlement of Balanus amphitrite, mean ± standard deviation of at least three replicates
[6] = Table 2, LC50 used is the highest concentration causing <50% death of larvae
[7] = Amphibalanus amphitrite, Table 2, larval settlement
[8] = judged from LC50/EC50, standard of Avelin et al. (1993): nontoxic if higher than 10
[9] = single compound at 10% of dry weight of paint, three months submergence

Compound `COc1ccc(-c2coc3c(OC)c(O)ccc3c2=O)cc1` [Sample F-2, 7-hydroxy-8,4′-dimethoxyisoflavone] has an EC50 [1, 5] of 13.3 ± 2.5 mg/L (≈ 44.6 µM) and an LC50/EC50 [1, 6] greater than 7.50.
`C[C@@H]1O[C@@H](OC[C@H]2O[C@@H](Oc3c(-c4ccc(O)c(O)c4)oc4cc(O)cc(O)c4c3=O)[C@H](O)[C@@H](O)[C@@H]2O)[C@H](O)[C@H](O)[C@H]1O` [Sample F-5, neoisorutin] showed an LC50/EC50 [1, 6] greater than 5.0 and an EC50 ([1]; Table 2, larval settlement of Balanus amphitrite, mean ± standard deviation of at least three replicates) of 40.1 ± 3.4 mg/L (≈ 65.7 µM).
Work on `COc1ccc(-c2oc3cc(OC)c(OC)c(O)c3c(=O)c2OC)cc1O` [Sample F-3] yielded an EC50 [1, 7] of roughly 3 mg/L (≈ 8.01 µM), an EC50 [1, 5] of 3 ± 0.4 mg/L (≈ 8.01 µM) and an LC50/EC50 [1, 6] greater than 16.7. The “toxicity (in words)” value ([1]; in vivo) was “almost no toxicity”.
In the case of `O=c1cc(-c2ccccc2)oc2cccc(O)c12` [Sample F-17, 5-monohydroxy-flavone], the EC50 [1, 7] is reported as roughly 3 mg/L (≈ 12.6 µM), the EC50 [1, 5] is reported as 2.8 ± 0.3 mg/L (≈ 11.8 µM) and the LC50/EC50 [1, 6] is reported as greater than 17.9. For the same compound, the “toxicity (in words)” value [1, 8] was “almost no toxicity”.
In the case of `COc1ccc(-c2oc3c(CC=C(C)C)c(O[C@@H]4O[C@H](CO)[C@@H](O)[C@H](O)[C@H]4O)cc(O)c3c(=O)c2O[C@@H]2O[C@@H](C)[C@H](O)[C@@H](O)[C@H]2O)cc1` [Sample F-16, icariin], the EC50 [1, 5] is reported as 35.3 ± 4.2 mg/L (≈ 52.2 µM) and the LC50/EC50 [1, 6] is reported as greater than 2.8.
For `COc1c(OC)c(O)c2c(=O)c(OC)c(-c3ccc(O)cc3)oc2c1OC` [Sample F-1, 4′,5-dihydroxy-3,6,7,8 tetramethoxy-flavone], the EC50 [1, 7] was roughly 3 mg/L (≈ 8.01 µM), the EC50 [1, 5] was 3.4 ± 0.5 mg/L (≈ 9.08 µM) and the LC50/EC50 [1, 6] was greater than 14.7. The “toxicity (in words)” value ([1]; in vivo) was “almost no toxicity”.
`O=c1c(O)c(-c2ccc(O)cc2)oc2cc(O)cc(O)c12` [Sample F-6, kaempferol] showed an EC50 [1, 5] of 9.6 ± 1.4 mg/L (≈ 33.5 µM) and an LC50/EC50 [1, 6] greater than 5.2.
`COc1ccc(-c2oc3cc(OC)cc(O)c3c(=O)c2O)cc1` [Sample F-8, 3,5-dihydroxy-7,4′-dimethoxyflavone] gave an EC50 [1, 5] of 11.8 ± 2.1 mg/L (≈ 37.5 µM) and an LC50/EC50 [1, 6] greater than 4.2.
Compound `O=c1cc(-c2ccc(O)cc2)oc2cc(O)cc(O)c12` [Sample F-9, 4′,5,7-trihydroxy-flavone] has an EC50 [1, 7] of roughly 3 mg/L (≈ 11.1 µM), an EC50 [1, 5] of 3.1 ± 0.3 mg/L (≈ 11.5 µM) and an LC50/EC50 [1, 6] greater than 16.1. The “toxicity (in words)” value [1, 8] was “almost no toxicity”.
With `O=c1c(-c2ccc(O)cc2)coc2cc(O)cc(O)c12` [Sample F-12, 4′,5,7-trihydroxy-isoflavone] the genistein decomposed ([2]; artificial seawater (ASW)) was roughly 35%, the genistein decomposed ([2]; filtered natural seawater (FSW)) was roughly 26% and the genistein decomposed ([2]; pH 5.0 buffer solution) was “About 27%”. The genistein decomposed ([2]; pH 7.0 buffer solution) was roughly 31%, the genistein decomposed ([2]; pH 9.0 buffer solution) was roughly 37% and the LC50 at 24 h [3] was greater than 50 mg/L. The EC50 ([1]; 24 h, genistein from Streptomyces fungicidicus, larval settlement, 24 h at 24° C., method of Rittschof et al. (1994)) was 3 mg/L (≈ 11.1 µM), the EC50 [1, 7] was 3 mg/L (≈ 11.1 µM) and the EC50 [1, 5] was 3 ± 0.3 mg/L (≈ 11.1 µM). The “concentration at which inhibitory activity against larvae settlement was observed (as low as)” value ([1]; FIG. 2) was 0.5 µg/mL, the LC50/EC50 [1, 6] was greater than 16.7 and the LC50/EC50 ([1]; Table 2, genistein purified from extract of Genista tinctoria) was greater than 16.7. For the same compound, the larvae settled ([1]; concentration of 8 μg/ml, control 90% settlement) was 10%, the LC50/EC50 ([1]; genistein from Streptomyces fungicidicus) was greater than 16.7 and the “toxicity (in words)” value [1, 8] was “nontoxic”. For the same compound, the “density of barnacles fouled on the test panels” value (“density of barnacles fouled” below) ([4]; 10% of dry weight of paint, one month submergence, control 0.32 ± 0.039) was 0.12 ± 0.031 adults cm^−2, the “density of barnacles fouled” value ([4]; 10% of dry weight of paint, two months submergence, control 0.71 ± 0.053) was 0.57 ± 0.055 adults cm^−2 and the “density of barnacles fouled” value ([4]; 20% of dry weight of paint, one month submergence, control 0.32 ± 0.039) was 0.08 ± 0.027 adults cm^−2. The “density of barnacles fouled” value ([4]; 20% of dry weight of paint, two months submergence, control 0.71 ± 0.053) was 0.13 ± 0.029 adults cm^−2 and the “density of barnacles fouled” value [4, 9] was 0.77 ± 0.042 adults cm^−2.
Compound `COc1cc2oc(-c3ccc(O)cc3)c(OC)c(=O)c2c(O)c1OC` [Sample F-4, 4′,5,-dihydroxy-3,6,7-trimethoxy-flavone] has an EC50 [1, 7] of roughly 3 mg/L (≈ 8.71 µM), an EC50 [1, 5] of 2.5 ± 0.3 mg/L (≈ 7.26 µM) and an LC50/EC50 [1, 6] greater than 20.0. For the same compound, the “toxicity (in words)” value ([1]; in vivo) was “almost no toxicity”.
With Cu2O [reference compound] the “density of barnacles fouled” value [4, 9] was 0.81 ± 0.06 adults cm^−2.
`O=c1cc(-c2ccc(O)c(O)c2)oc2cc(O)cc(O)c12` [Sample F-10] gave an EC50 [1, 7] of roughly 3 mg/L (≈ 10.5 µM), an EC50 [1, 5] of 3.8 ± 0.4 mg/L (≈ 13.3 µM) and an LC50/EC50 ([1]; Balanus amphitrite, in vivo, 24 h) greater than 13.2. The “toxicity (in words)” value ([1]; in vivo) was “almost no toxicity”.
